# Measured values from PubChem BioAssay (NCI).
#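 At the GI50, growth is halved. Definition used: TGI = concentration required for complete inhibition of growth.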
# Key:
# Test in all cases: inhibition of tumour cell growth, NCI panel, 384-well format
# SK-OV-3 ovarian = system: SK-OV-3 ovarian
# UACC-257 melanoma = system: UACC-257 melanoma
# DU-145 prostate = system: DU-145 prostate
# NCI-H23 lung = system: NCI-H23 lung
# A549 NSCLC = system: A549 NSCLC
# OVCAR-5 ovarian = system: OVCAR-5 ovarian
# KM12 colon = system: KM12 colon
# HCT-15 colon = system: HCT-15 colon
# MCF7 breast = system: MCF7 breast
# IGROV1 ovarian = system: IGROV1 ovarian
# HT29 colon = system: HT29 colon
# SF-539 CNS = system: SF-539 CNS
# HOP-92 NSCLC = system: HOP-92 NSCLC
# 786-0 renal = system: 786-0 renal
# HOP-62 NSCLC = system: HOP-62 NSCLC
# TK-10 renal = system: TK-10 renal
# RPMI-8226 leukemia = system: RPMI-8226 leukemia
# SF-295 CNS = system: SF-295 CNS
# BT-549 breast = system: BT-549 breast
# ACHN renal = system: ACHN renal
# LOX IMVI melanoma = system: LOX IMVI melanoma
# SW-620 colon = system: SW-620 colon
# OVCAR-4 ovarian = system: OVCAR-4 ovarian
# MDA-MB-435 melanoma = system: MDA-MB-435 melanoma
# M14 melanoma = system: M14 melanoma
# MOLT-4 leukemia = system: MOLT-4 leukemia
# HCC-2998 colon = system: HCC-2998 colon
# SK-MEL-28 melanoma = system: SK-MEL-28 melanoma
# SN12C renal = system: SN12C renal
# HS 578T breast = system: HS 578T breast
# NCI/ADR-RES ovarian = system: NCI/ADR-RES ovarian
# MDA-MB-231 breast = system: MDA-MB-231 breast
# MDA-MB-468 breast = system: MDA-MB-468 breast
# RXF 393 renal = system: RXF 393 renal
# UACC-62 melanoma = system: UACC-62 melanoma
# EKVX NSCLC = system: EKVX NSCLC
# K-562 leukemia = system: K-562 leukemia
# OVCAR-8 ovarian = system: OVCAR-8 ovarian
# NCI-H460 NSCLC = system: NCI-H460 NSCLC
# UO-31 renal = system: UO-31 renal
# PC-3 prostate = system: PC-3 prostate
# U251 glioblastoma = system: U251 glioblastoma
# CAKI-1 renal = system: CAKI-1 renal
# NCI-H226 lung = system: NCI-H226 lung
# COLO 205 colon = system: COLO 205 colon
# SF-268 CNS = system: SF-268 CNS
# T-47D breast = system: T-47D breast
# A498 renal = system: A498 renal
# NCI-H522 lung = system: NCI-H522 lung
# SNB-19 CNS = system: SNB-19 CNS
# SNB-75 CNS = system: SNB-75 CNS
# MALME-3M melanoma = system: MALME-3M melanoma
# HCT-116 colon = system: HCT-116 colon
# CCRF-CEM leukemia = system: CCRF-CEM leukemia
# SK-MEL-5 melanoma = system: SK-MEL-5 melanoma
# NCI-H322M lung = system: NCI-H322M lung
# HL-60(TB) leukemia = system: HL-60(TB) leukemia
# OVCAR-3 ovarian = system: OVCAR-3 ovarian
compound,measurement,setting,value
Cc1csc(-c2nnc(Nc3ccc(Oc4ncccc4-c4ccnc(N)n4)cc3)c3ccccc23)c1,GI50,SK-OV-3 ovarian,3820 nM
same,TGI,SK-OV-3 ovarian,> 100000 nM
same,GI50,UACC-257 melanoma,1480 nM
same,TGI,UACC-257 melanoma,43200 nM
same,GI50,DU-145 prostate,2100 nM
same,TGI,DU-145 prostate,> 100000 nM
same,GI50,NCI-H23 lung,1200 nM
same,TGI,NCI-H23 lung,16300 nM
same,GI50,A549 NSCLC,< 10 nM
same,TGI,A549 NSCLC,> 100000 nM
same,GI50,OVCAR-5 ovarian,7210 nM
same,TGI,OVCAR-5 ovarian,> 100000 nM
same,GI50,KM12 colon,1690 nM
same,TGI,KM12 colon,> 100000 nM
same,GI50,HCT-15 colon,586 nM
same,TGI,HCT-15 colon,> 100000 nM
same,GI50,MCF7 breast,547 nM
same,TGI,MCF7 breast,13100 nM
same,GI50,IGROV1 ovarian,1540 nM
same,TGI,IGROV1 ovarian,> 100000 nM
same,GI50,HT29 colon,271 nM
same,TGI,HT29 colon,2950 nM
same,GI50,SF-539 CNS,141 nM
same,TGI,SF-539 CNS,> 100000 nM
same,GI50,HOP-92 NSCLC,1960 nM
same,TGI,HOP-92 NSCLC,43300 nM
same,GI50,786-0 renal,2710 nM
same,TGI,786-0 renal,> 100000 nM
same,GI50,HOP-62 NSCLC,89.4 nM
same,TGI,HOP-62 NSCLC,> 100000 nM
same,GI50,TK-10 renal,1890 nM
same,TGI,TK-10 renal,> 100000 nM
same,GI50,RPMI-8226 leukemia,10.1 nM
same,TGI,RPMI-8226 leukemia,2470 nM
same,GI50,SF-295 CNS,51.7 nM
same,TGI,SF-295 CNS,> 100000 nM
same,GI50,BT-549 breast,191 nM
same,TGI,BT-549 breast,> 100000 nM
same,GI50,ACHN renal,878 nM
same,TGI,ACHN renal,> 100000 nM
same,GI50,LOX IMVI melanoma,187 nM
same,TGI,LOX IMVI melanoma,> 100000 nM
same,GI50,SW-620 colon,181 nM
same,TGI,SW-620 colon,3130 nM
same,GI50,OVCAR-4 ovarian,5320 nM
same,TGI,OVCAR-4 ovarian,> 100000 nM
same,GI50,MDA-MB-435 melanoma,1810 nM
same,TGI,MDA-MB-435 melanoma,> 100000 nM
same,GI50,M14 melanoma,99.5 nM
same,TGI,M14 melanoma,3080 nM
same,GI50,MOLT-4 leukemia,< 10 nM
same,TGI,MOLT-4 leukemia,< 10 nM
same,GI50,HCC-2998 colon,1440 nM
same,TGI,HCC-2998 colon,3530 nM
same,GI50,SK-MEL-28 melanoma,1510 nM
same,TGI,SK-MEL-28 melanoma,9780 nM
same,GI50,SN12C renal,1130 nM
same,TGI,SN12C renal,> 100000 nM
same,GI50,HS 578T breast,< 10 nM
same,TGI,HS 578T breast,17600 nM
same,GI50,NCI/ADR-RES ovarian,166 nM
same,TGI,NCI/ADR-RES ovarian,> 100000 nM
same,GI50,MDA-MB-231 breast,2340 nM
same,TGI,MDA-MB-231 breast,> 100000 nM
same,GI50,MDA-MB-468 breast,< 10 nM
same,TGI,MDA-MB-468 breast,< 10 nM
same,GI50,RXF 393 renal,< 10 nM
same,TGI,RXF 393 renal,5030 nM
same,GI50,UACC-62 melanoma,202 nM
same,TGI,UACC-62 melanoma,5220 nM
same,GI50,EKVX NSCLC,918 nM
same,TGI,EKVX NSCLC,> 100000 nM
same,GI50,K-562 leukemia,552 nM
same,TGI,K-562 leukemia,> 100000 nM
same,GI50,OVCAR-8 ovarian,1340 nM
same,TGI,OVCAR-8 ovarian,> 100000 nM
same,GI50,NCI-H460 NSCLC,< 10 nM
same,TGI,NCI-H460 NSCLC,1290 nM
same,GI50,UO-31 renal,2420 nM
same,TGI,UO-31 renal,> 100000 nM
same,GI50,PC-3 prostate,4050 nM
same,TGI,PC-3 prostate,> 100000 nM
same,GI50,U251 glioblastoma,2910 nM
same,TGI,U251 glioblastoma,> 100000 nM
same,GI50,CAKI-1 renal,682 nM
same,TGI,CAKI-1 renal,> 100000 nM
same,GI50,NCI-H226 lung,3250 nM
same,TGI,NCI-H226 lung,> 100000 nM
same,GI50,COLO 205 colon,< 10 nM
same,TGI,COLO 205 colon,< 10 nM
same,GI50,SF-268 CNS,< 10 nM
same,TGI,SF-268 CNS,56.4 nM
same,GI50,T-47D breast,1440 nM
same,TGI,T-47D breast,4880 nM
same,GI50,A498 renal,253 nM
same,TGI,A498 renal,> 100000 nM
same,GI50,NCI-H522 lung,12.1 nM
same,TGI,NCI-H522 lung,4590 nM
same,GI50,SNB-19 CNS,19600 nM
same,TGI,SNB-19 CNS,> 100000 nM
same,GI50,SNB-75 CNS,5920 nM
same,TGI,SNB-75 CNS,> 100000 nM
same,GI50,MALME-3M melanoma,1510 nM
same,TGI,MALME-3M melanoma,6120 nM
same,GI50,HCT-116 colon,33.1 nM
same,TGI,HCT-116 colon,> 100000 nM
same,GI50,CCRF-CEM leukemia,< 10 nM
same,TGI,CCRF-CEM leukemia,< 10 nM
same,GI50,SK-MEL-5 melanoma,976 nM
same,TGI,SK-MEL-5 melanoma,> 100000 nM
same,GI50,NCI-H322M lung,4920 nM
same,TGI,NCI-H322M lung,> 100000 nM
same,GI50,HL-60(TB) leukemia,< 10 nM
same,TGI,HL-60(TB) leukemia,1110 nM
same,GI50,OVCAR-3 ovarian,53.6 nM
same,TGI,OVCAR-3 ovarian,> 100000 nM
